Test results reported in patent US20220288065A1, “MONOCYCLIC AGONISTS OF STIMULATOR OF INTERFERON GENES STING” (The Scripps Research Institute, priority 2019, published 2022).

Tested on: THP-1 Lucia ISG cells
Assay: ISG-LUC activation assay (ISRE-luciferase assay)
Format: cell-based
Conditions: Homo sapiens, THP1-Lucia ISG, activity score based upon potency and efficacy data, 24 hours
Text: We have established a robust platform for identifying non-nucleotide small molecule STING agonists. This has been established using a primary assay involving a human THP-1 cell line carrying an IRF-inducible reporter with 5 copies of the IFN signaling response element. Counter screens, involving alternative reporter constructs, rodent cell-based assays, as well as cGAS and STING knock-out cell lines, are used to eliminate luciferase artifacts and ensure human-rodent cross species reactivity, as well as pathway selectivity. Biochemical assays, involving cGAS enzymatic activity and STING protein binding assays, are used to identify the specific target of identified hits.
Tissue culture. Wild-type (cat. no. thpl-isg) and STING KO (cat. no. thpd-kostg) THP-1-Lucia ISG cells were purchased from Invivogen and maintained in growth media consisting of RPMI 1640, 2 mM L-glutamine, 25 mM HEPES, 10% heat-inactivated fetal bovine serum (FBS), 1,000 units/ml penicillin, 1,000 μg/ml streptomycin, 0.25 μg/ml Amphotericin B, and 100 μg/ml zeocin unless otherwise stated.
ISRE-luciferase assay. THP-1 Lucia ISG cells were resuspended in low-serum growth media (2% FBS) at a density of 5×10^5 cells/ml and treated with test article or vehicle (DMSO). 50 μL of cells were seeded into each well of a 384-well white greiner plates and incubated for 24 hours. To evaluate expression of the luciferase reporter, 30 μl of Quanti-luc (Invivogen) detection reagent was added to each well and luminescence was read using an Envision plate reader (Perkin Elmer) set with an integration time of 0.1 seconds.

Compound | EC50
CS(=O)(=O)NCCNc1cc(C(=O)Nc2cc(F)c(F)cc2C(=O)O)nnc1-n1ccnc1 [Compound 6] | > 1 µM
COC(=O)c1cc(F)c(F)cc1NC(=O)c1ccc(N)nn1 [Compound 8] | > 1 µM
COC(=O)c1cc(F)c(F)cc1NC(=O)c1ccc(CC#N)nn1 [Compound 9] | > 1 µM
COC(=O)c1cc(F)c(F)cc1NC(=O)c1ccc(-c2cccnc2)nn1 [Compound 10] | > 1 µM
CCOC(=O)Nc1ccc(C(=O)Nc2cc(F)c(F)cc2C(=O)O)nn1 [Compound 11] | > 1 µM
COC(=O)c1cc(Cl)c(OC)cc1NC(=O)c1cc(N)ncn1 [Compound 12] | > 1 µM
NC(=O)c1ccc(C(=O)Nc2cc(F)c(F)cc2C(=O)O)cn1 [Compound 13] | > 20 µM
Nc1n[nH]cc1-c1ccc(C(=O)Nc2cc(F)c(F)cc2C(=O)O)nn1 [Compound 14] | > 1 µM
COC(=O)c1cc(F)c(F)cc1NC(=O)c1cc(C(N)=O)cnn1 [Compound 16] | > 1 µM
COC(=O)c1cc(Cl)c(Cl)cc1NC(=O)c1ccc(N)nn1 [Compound 18] | > 1 µM
COc1cncc(-c2ccc(C(=O)Nc3cc(F)c(F)cc3C(=O)O)nn2)c1 [Compound 19] | > 1 µM
O=C(Nc1cc(F)c(F)cc1C(=O)O)c1ccc(-c2cccnc2)nn1 [Compound 21] | > 1 µM
COC(=O)c1cc(Cl)c(Cl)cc1NC(=O)c1cn(-c2cnn(C(=O)OC(C)(C)C)c2)nn1 [Compound 22] | > 1 µM
COC(=O)c1cc(Cl)c(Cl)cc1NC(=O)c1ccc(-n2ccnc2)cn1 [Compound 25] | > 1 µM
COC(=O)c1cc(C#N)c(Cl)cc1NC(=O)c1ccc(-c2c(Br)cnn2C)nn1 [Compound 27] | > 20 µM
N#Cc1n[nH]cc1-c1ccc(C(=O)Nc2cc(Cl)c(F)cc2C(=O)O)nn1 [Compound 28] | > 1 µM
COC(=O)c1cc(C#N)c(Cl)cc1NC(=O)c1ccc(-c2c[nH]nn2)nn1 [Compound 30] | < 0.9 µM
Cn1cc(C#N)c(-c2ccc(C(=O)Nc3cc(Cl)c(Cl)cc3C(=O)O)nn2)n1 [Compound 32] | > 20 µM
O=C(Nc1cc(Cl)c(Cl)nc1C(=O)O)c1ccc(-c2cc[nH]n2)nn1 [Compound 33] | > 1 µM
C#Cc1cc(NC(=O)c2cn(-c3cn[nH]c3)nn2)c(C(=O)O)cc1F [Compound 36] | > 1 µM
COC(=O)c1sc(C)cc1NC(=O)c1ccc(-n2ccnc2)nn1 [Compound 39] | > 1 µM
COC(=O)c1cc(F)c(F)cc1NC(=O)c1cc(C)c(-n2ccnc2)nn1 [Compound 42] | > 1 µM

Compound | EC50
COC(=O)c1cc(F)c(F)cc1NC(=O)c1nnc(-n2ccnc2)cc1C [Compound 43] | > 1 µM
COC(=O)c1cc(Cl)c(F)cc1NC(=O)c1ccncn1 [Compound 45] | > 1 µM
C#Cc1cc(NC(=O)c2ccc(-c3cn[nH]c3)nn2)c(C(=O)O)cc1F [Compound 46] | > 1 µM
COC(=O)NCc1cc(C(=O)Nc2cc(Cl)c(Cl)cc2C(=O)OC)nnc1-n1ccnc1 [Compound 47] | > 1 µM
COC(=O)c1cc(Cl)c(Cl)cc1NC(=O)c1cc(CNC(N)=O)c(-n2ccnc2)nn1 [Compound 48] | > 1 µM
O=C(Nc1cc(Cl)c(Cl)cc1C(=O)O)c1ccc(-c2cn[nH]c2)nn1 [Compound 49] | > 1 µM
O=C(Nc1cc(Cl)c(Cl)cc1C(=O)O)c1ccc(-c2c[nH]nn2)nn1 [Compound 51] | > 1 µM
C#Cc1cc(NC(=O)c2ccc(-c3cn[nH]c3)nn2)c(C(=O)O)cc1Cl [Compound 53] | > 1 µM
C#Cc1cc(NC(=O)c2cnc(-c3cn[nH]c3)cn2)c(C(=O)OC)cc1F [Compound 55] | > 20 µM
C#Cc1cc(NC(=O)c2ncc(-c3cn[nH]c3)cn2)c(C(=O)OC)cc1F [Compound 56] | > 20 µM
COC(=O)NCCNc1cc(C(=O)Nc2cc(F)c(F)cc2C(=O)OCc2ccc(OC)cc2)nnc1-n1ccnc1 [Compound 61] | > 1 µM
O=C(Nc1cc(F)c(F)cc1C(=O)O)c1ccc(-c2cn[nH]c2)nn1 [Compound 63] | > 1 µM
O=C(Nc1cc(Cl)c(Cl)cc1C(=O)O)c1cn(-c2cn[nH]c2)nn1 [Compound 64] | > 1 µM
COC(=O)c1cc(F)c(F)cc1NC(=O)c1cc(CN)c(-n2ccnc2)nn1 [Compound 65] | > 1 µM
O=C(Nc1cc(F)c(Cl)cc1C(=O)O)c1ccc(-c2cn[nH]c2)nn1 [Compound 66] | > 1 µM
O=C(Nc1cc(Cl)c(F)cc1C(=O)O)c1ccc(-c2cn[nH]c2)nn1 [Compound 67] | > 1 µM
COC(=O)c1cc(C#N)c(Cl)cc1NC(=O)c1ccc(-c2cn[nH]c2)nn1 [Compound 68] | < 0.9 µM
N#Cc1cc(C(=O)O)c(NC(=O)c2ccc(-c3cn[nH]c3)nn2)cc1Cl [Compound 70] | > 20 µM
COC(=O)c1cc(C#N)c(C#N)cc1NC(=O)c1ccc(-c2c(C#N)cnn2C)nn1 [Compound 71] | > 20 µM
N#Cc1cc(C(=O)O)c(NC(=O)c2ccc(-c3c[nH]nn3)nn2)cc1Cl [Compound 72] | > 20 µM
COC(=O)c1cc(Cl)c(Cl)cc1NC(=O)c1ccc(-c2nn(C)cc2C#N)nn1 [Compound 73] | > 20 µM
COC(=O)c1cc(Cl)c(Cl)cc1NC(=O)c1cc(CCCN)c(-n2ccnc2)nn1 [Compound 74] | > 1 µM

Continued, values first:

EC50 | Compound
< 0.9 µM | C#Cc1cc(NC(=O)c2ccc(-c3ccncc3)nn2)c(C(=O)O)cc1F [Compound 1, lithium 4-ethynyl-5-fluoro-2-(6-(pyridin-4-yl)pyridazine-3-carboxamido) benzoate]
> 1 µM | COC(=O)c1cc(F)c(F)cc1NC(=O)c1nnc(-n2ccnc2)cc1CN [Compound 2, methyl 2-(4-(aminomethyl)-6-(1H-imidazol-1-yl)pyridazine-3-carboxamido)-4,5-difluorobenzoate]
< 0.9 µM | C#Cc1cc2nc(-c3ccc(-c4ccncc4)nn3)oc(=O)c2cc1F [Compound 3, 7-ethynyl-6-fluoro-2-(6-(pyridin-4-yl)pyridazin-3-yl)-4H-benzo[d][1,3]oxazin-4-one]
< 3 µM | COC(=O)c1cc(F)c(F)cc1NC(=O)c1ccc(-n2ccnc2CO)nn1 [Compound 4]
> 1 µM | COC(=O)c1cc(F)c(F)cc1NC(=O)c1ccc(C#N)nn1 [Compound 5]
< 0.9 µM | COC(=O)c1cc(F)c(F)cc1NC(=O)c1nnc(-n2ccnc2)cc1CO [Compound 7]
< 0.9 µM | COC(=O)c1cc(F)c(F)cc1NC(=O)c1ccc(-c2c[nH]nn2)nn1 [Compound 15]
< 3 µM | COC(=O)c1cc(F)c(F)cc1NC(=O)c1ccc(CO)nn1 [Compound 17]
< 0.9 µM | COC(=O)c1cc(F)c(F)cc1NC(=O)c1cc(N)cnn1 [Compound 20]
< 0.9 µM | COC(=O)c1cc(Cl)c(Cl)cc1NC(=O)c1cn(-c2cn[nH]c2)nn1 [Compound 23]
< 0.9 µM | COC(=O)c1cc(Cl)c(Cl)cc1NC(=O)c1nnc(-n2ccnc2)cc1CN [Compound 24]
< 0.9 µM | COC(=O)c1cc(Cl)c(Cl)cc1NC(=O)c1cc(CN)c(-n2ccnc2)nn1 [Compound 26]
< 0.9 µM | O=C(Nc1cc(Cl)c(F)cc1C(=O)O)c1ccc(-c2cnsc2)nn1 [Compound 29]
< 0.9 µM | O=C(Nc1cc(Cl)c(F)cc1C(=O)O)c1ccc(-c2ccns2)nn1 [Compound 31]
< 0.9 µM | COC(=O)c1nc(Cl)c(Cl)cc1NC(=O)c1ccc(-c2cc[nH]n2)nn1 [Compound 34]
< 0.9 µM | C#Cc1cc(NC(=O)c2cn(-c3cn[nH]c3)nn2)c(C(=O)OC)cc1F [Compound 35]

EC50 | Compound
< 3 µM | COC(=O)c1cc(Cl)c(Cl)cc1NC(=O)c1nc(-c2cn[nH]c2)no1 [Compound 37]
< 0.9 µM | C#Cc1cc(NC(=O)c2ccc(-c3cn[nH]c3)nn2)c(C(=O)O)nc1Cl [Compound 38]
< 0.9 µM | COC(=O)c1cc(F)c(F)cc1NC(=O)c1ccc(-c2ccnc(N)c2)nn1 [Compound 40]
< 0.9 µM | COC(=O)c1cc(F)c(F)cc1NC(=O)c1cc(N)c(-n2ccnc2)nn1 [Compound 41]
< 0.9 µM | C=Cc1cc(NC(=O)c2ccc(-c3cn[nH]c3)nn2)c(C(=O)O)cc1F [Compound 44]
< 0.9 µM | COC(=O)c1cc(Cl)c(Cl)cc1NC(=O)c1ccc(-c2c[nH]nn2)nn1 [Compound 50]
< 0.9 µM | O=C(Nc1cc(Cl)c(Cl)nc1C(=O)O)c1ccc(-c2cn[nH]c2)nn1 [Compound 52]
< 0.9 µM | COC(=O)c1cc(Cl)c(F)cc1NC(=O)c1ccc(-c2cn[nH]c2)nn1 [Compound 57]
< 0.9 µM | COC(=O)c1cc(F)c(F)cc1NC(=O)c1ccc(-c2cn[nH]c2)nn1 [Compound 58]
< 0.9 µM | COC(=O)c1cc(F)c(F)cc1NC(=O)c1cc(NCc2ccc(OC)cc2)cnn1 [Compound 59]
< 0.9 µM | COC(=O)c1cc(F)c(F)cc1NC(=O)c1ccc(-c2ccncc2)nn1 [Compound 60]
< 0.9 µM | COC(=O)c1cc(F)c(Cl)cc1NC(=O)c1ccc(-c2cn[nH]c2)nn1 [Compound 69]
< 0.9 µM | C#Cc1cc2nc(-c3ccc(-n4ccnc4)nn3)oc(=O)c2cc1F [Compound 75]
< 0.9 µM | C#Cc1cc(NC(=O)c2ccc(-n3ccnc3)nn2)c(C(=O)OCC)nc1Cl [Compound 76]
< 0.9 µM | C#Cc1cc(NC(=O)c2ccc(-n3ccnc3)nn2)c(C(=O)O)nc1Cl [Compound 77]
